{"source": "patent US9335538B2", "about": "“Electrowetting display device and dye composition for electrowetting display” (FUJIFILM CORPORATION, priority 2012, dated 2016)", "type_in_all_cases": "physicochemical", "key": {"[1]": {"assay": "Hue of colored solution, visual observation", "details": "0.01% by mass normal decane solution, visually observed", "procedure": "(§1) A methine dye (the above-described exemplary compounds 5, 15, and 23 shown in Table 1 below were prepared) and normal decane (n-decane) which is an organic solvent were mixed. In this way, three kinds of 0.01% by mass normal decane solutions (colored compositions) each colored with a methine dye were prepared.\n(§2) With regard to each of the colored solutions thus prepared, the hue, absorption maximum wavelength (λmax), absorbance (abs), and absorption coefficient (∈) were measured and evaluated according to the methods described below. Further, with regard to each of the dyes described below, the solubility (% by mass) with respect to normal hexane (n-hexane) was measured and evaluated according to the method described below.\n(1) Hue Each of the colored solutions (colored compositions) was visually observed, and the hue thereof was judged."}, "[2]": {"assay": "Absorption maximum wavelength, absorbance and absorption coefficient of colored solution (visible absorptiometer)", "details": "0.01% by mass normal decane solution", "procedure": "as §1, §2\n(2) Absorption Maximum Wavelength, Absorbance, and Absorption Coefficient\nWith regard to the colored solutions (colored compositions), the absorption maximum wavelength (λmax) and the absorbance were measured using a visible absorptiometer (trade name: UV-1800PC, manufactured by Shimadzu Corp.), and the absorption coefficient (∈) was calculated based on the Lambert-Beer law."}, "[3]": {"assay": "Solubility with respect to hexane", "procedure": "(3) Solubility with Respect to Hexane\nThe solubility of each methine dye with respect to normal hexane (n-hexane) which is a nonpolar solvent was measured in a manner as described below.\nThe dye was dissolved in normal hexane heated to 50° C. to prepare a saturated solution. Thereafter, the saturated solution thus obtained was left for one hour under an environment of 25° C. and 0.1 MPa."}}}
{"molecule": "CCCCCCC(Oc1ccc(C(C)(C)CC)cc1C(C)(C)CC)C(=O)NCC(C)c1nc2/c(=C\\c3c(C)nn4nc(C(C)CNC(=O)C(CCCCCC)Oc5ccc(C(C)(C)CC)cc5C(C)(C)CC)[nH]c34)c(C)nn2n1", "note": "(stereo not drawn) [Exemplary compound 5]", "values": [{"measurement": "Color of solution", "setting": "[1]", "result": "yellow"}, {"measurement": "Absorbance (abs)", "setting": "[2]", "result": 0.525}, {"measurement": "Absorption maximum wavelength (λmax)", "setting": "[2]", "result": 441, "unit": "nm"}, {"measurement": "Absorption coefficient (ε)", "setting": "[2]; calculated based on the Lambert-Beer law", "result": "3.20 × 10^4"}, {"measurement": "solubility with respect to hexane (in words)", "setting": "[3]; hexane, a hydrocarbon solvent", "result": "high solubility"}, {"measurement": "Solubility in hexane (%)", "setting": "[3]; n-hexane, 25° C. and 0.1 MPa, % by mass", "result": "40 or more %"}]}
